Experimental findings from patent US10118935B2, “Melampomagnolide B dimers” (priority 2014, dated 2018) are described below.

Like-named read-outs stand apart in the source and are kept apart here.

One series deals with EKVX. As to the kind of experiment: NCI 60 cell line five dose, Non-Small Cell Lung Cancer. The class given is cell-based, human. The conditions noted are these: for CC50: read-out: LC50 (the source's name).
A further series has as its system HOP-62. The series is described as above. The class given is cell-based, human. As to conditions: for CC50: read-out: LC50 (the source's name).

Turning to `C=C1C(=O)O[C@H]2[C@H]1CC/C(COC(=O)CCC(=O)NCCCCCCCCNC(=O)CCC(=O)OC/C1=C/CC[C@@]3(C)O[C@H]3[C@H]3OC(=O)C(=C)[C@@H]3CC1)=C\CC[C@@]1(C)O[C@@H]21` [JVM 2-87, bis(((1aR,7aS,10aS,10bS,E)-1a-Methyl-8-methylene-9-oxo-1a,2,3,6,7,7a,8,9,10a,1b-decahydrooxireno[2′,3′:9,10]cyclodeca[1,2-b]furan-5-yl)methyl)4,4′-(octane-1,8-diylbis(azanediyl))bis(4-oxobutanoate)], the CC50 in the series on OVCAR-3 was 5.31 µM; in the series on UACC-62 it was 8.94 µM; in the series on SF-539 it was 20.9 µM; in the series on NCI/ADR-RES, over 100 µM; in the series with MDA-MB-435, 7.58 µM; in the series with SK-MEL-5, 38.4 µM. Moreover, the CC50 in the series with HCT-15 was 43.2 µM; with MDA-MB-468, 21.3 µM; with HOP-92, 6.77 µM; in the series with HS 578T, over 100 µM; in the series on TK-10, 7.46 µM; with OVCAR-8, over 100 µM. In addition, the CC50 is 42.6 µM in the series on NCI-H23; 6.81 µM with DU-145; 34.7 µM in the series with ACHN; over 100 µM in the series with CCRF-CEM; 7.31 µM with OVCAR-5; 16 µM with UACC-257. The CC50 was found to be 56.8 µM in the series with SF-295; 54 µM in the series with UO-31; 7.28 µM in the series on COLO 205; 43 µM with U251; 7.27 µM with RXF 393.

For the compound `C=C1C(=O)O[C@H]2[C@H]1CC/C(COC(=O)CCC(=O)NCCCCCCCCCNC(=O)CCC(=O)OC/C1=C/CC[C@@]3(C)O[C@H]3[C@H]3OC(=O)C(=C)[C@@H]3CC1)=C\CC[C@@]1(C)O[C@@H]21` [JVM 2-92, bis(((1aR,7aS,10aS,10bS,E)-1a-Methyl-8-methylene-9-oxo-1a,2,3,6,7,7a,8,9,10a,10b-decahydrooxireno[2′,3′:9,10]cyclodeca[1,2-b]furan-5-yl)methyl)4,4′-(nonane-1,9-diylbis(azanediyl))bis (4-oxobutanoate)], the CC50 in the series with OVCAR-3 was 5.3 µM; in the series with UACC-62, 8.44 µM; in the series on SF-539, 9.95 µM; in the series with NCI/ADR-RES, over 100 µM; in the series with MDA-MB-435 it was 7.25 µM; in the series with SK-MEL-5, 9.37 µM. The CC50 with HCT-15 is 46 µM; with MDA-MB-468, 7.04 µM; in the series with HOP-92, 6.64 µM; in the series on HS 578T, over 100 µM; in the series on TK-10, 6.02 µM; with OVCAR-8, over 100 µM. Further, the CC50 in the series on NCI-H23 was 18.5 µM; in the series with DU-145, 5.78 µM; with ACHN it was 17.2 µM; with CCRF-CEM, over 100 µM; with OVCAR-5, 7.06 µM; in the series on T-47D it was over 100 µM. Also, the CC50 stood at 32 µM in the series with UACC-257; 52 µM with SF-295; 45.6 µM in the series with UO-31; 8.15 µM in the series with COLO 205; 44.7 µM in the series on U251; 29.6 µM in the series on PC-3. The compound further yielded a CC50 in the series on RXF 393 of 6.21 µM.

Consider `C=C1C(=O)O[C@H]2[C@H]1CC/C(COC(=O)NCCCCNC(=O)OC/C1=C/CC[C@@]3(C)O[C@H]3[C@H]3OC(=O)C(=C)[C@@H]3CC1)=C\CC[C@@]1(C)O[C@@H]21` [JVM 3-54, bis(((1aR,7aS,10aS,10bS,E)-1a-Methyl-8-methylene-9-oxo-1a,2,3,6,7,7a,8,9,10a,10b-decahydrooxireno[2′,3′:9,10]cyclodeca[1,2-b]furan-5-yl)methyl)butane-1,4-diyldicarbamate], for which the figures for the 50% growth inhibitory concentration (GI50) in the series with EKVX and in the series with HOP-62 were 3.69 µM and 3.84 µM, respectively. For the same compound, the TGI worked out at 1.35e-05 M in the series with EKVX and 1.4e-05 M with HOP-62. Moreover, the “Percent Growth” value was −98% in the series on EKVX (Log10 Concentration −4.0); 15% with EKVX (Log10 Concentration −5.0); 96% with EKVX (Log10 Concentration −6.0); 92% with EKVX (Log10 Concentration −7.0); 97% in the series on EKVX (Log10 Concentration −8.0); −82% with HOP-62 (Log10 Concentration −4.0). The “Percent Growth” value in the series with HOP-62 (Log10 Concentration −5.0) was 14%; in the series with HOP-62 (Log10 Concentration −6.0), 101%; with HOP-62 (Log10 Concentration −7.0), 95%; in the series with HOP-62 (Log10 Concentration −8.0) it was 94%. The CC50 in the series on EKVX was determined as 37.3 µM; in the series on HOP-62, 46.1 µM.

With `C=C1C(=O)O[C@H]2[C@H]1CC/C(COC(=O)NCCCCCCCCNC(=O)OC/C1=C/CC[C@@]3(C)O[C@H]3[C@H]3OC(=O)C(=C)[C@@H]3CC1)=C\CC[C@@]1(C)O[C@@H]21` [JVM 3-62, bis(((1aR,7aS, 10aS, 10bS, E)-1a-Methyl-8-methylene-9-oxo-1a,2,3,6,7,7a,8,9,10a,10b-decahydrooxireno[2′,3′:9,10]cyclodeca[1,2-b]furan-5-yl)methyl)octane-1,8-diyldicarbamate], the “Percent Growth” value in the series on EKVX (Log10 Concentration −4.0) is given as −98%; in the series with EKVX (Log10 Concentration −5.0) it was −99%; in the series with EKVX (Log10 Concentration −6.0) it was 62%; with EKVX (Log10 Concentration −7.0), 90%; with EKVX (Log10 Concentration −8.0) it was 91%; in the series on HOP-62 (Log10 Concentration −4.0), −80%. The “Percent Growth” value is recorded as −64% in the series with HOP-62 (Log10 Concentration −5.0), 76% in the series with HOP-62 (Log10 Concentration −6.0), 103% with HOP-62 (Log10 Concentration −7.0) and 103% in the series with HOP-62 (Log10 Concentration −8.0). Besides, the GI50 (commonly the concentration at which growth is held to half of that of the control) in the series on EKVX (molar) was determined as 1.19 µM; with HOP-62 (molar), 1.53 µM. Further, the TGI in the series on EKVX (molar) was found to be 2.44E−6; with HOP-62 (molar), 3.49E−6. Further, the values for the CC50 in the series with EKVX (molar) and with HOP-62 (molar) were 4.99 µM and 7.95 µM, respectively.
